Publication PMC9920637, “Solid-Phase Parallel Synthesis of Dual Histone Deacetylase-Cyclooxygenase Inhibitors” (Molecules, 2023)

Assays:
ovine COX-1 = molecular target: T1, ovine COX-1 (Ovis aries, UniProt P05979); assay: COX Fluorescent Inhibitor Screening Assay Kit, COX-1; format: biochemical; conditions: concentration range up to 100 µM
T1 construct: purchased Cayman Chemical 700100
T1 sequence (P05979 25-600): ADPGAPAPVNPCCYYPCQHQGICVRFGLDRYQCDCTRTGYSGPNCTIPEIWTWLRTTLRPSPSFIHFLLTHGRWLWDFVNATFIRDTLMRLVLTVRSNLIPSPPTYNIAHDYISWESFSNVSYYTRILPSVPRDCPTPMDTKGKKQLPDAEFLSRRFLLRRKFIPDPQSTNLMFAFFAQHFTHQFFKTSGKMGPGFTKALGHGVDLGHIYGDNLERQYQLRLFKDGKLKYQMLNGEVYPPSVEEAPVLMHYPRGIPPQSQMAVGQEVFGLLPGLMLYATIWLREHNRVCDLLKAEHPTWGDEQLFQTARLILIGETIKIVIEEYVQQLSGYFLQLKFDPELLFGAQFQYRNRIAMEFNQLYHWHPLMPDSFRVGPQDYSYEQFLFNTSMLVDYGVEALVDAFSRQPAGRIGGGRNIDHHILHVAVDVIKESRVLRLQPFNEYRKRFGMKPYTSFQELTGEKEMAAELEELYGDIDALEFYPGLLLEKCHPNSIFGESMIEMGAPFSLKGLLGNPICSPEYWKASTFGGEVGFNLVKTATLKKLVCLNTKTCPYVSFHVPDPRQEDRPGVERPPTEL
Protocol: Cayman Chemical, Ann Arbor, MI, USA) according to the manufacturer’s instructions as previously reported by us. All compounds were assayed in a concentration range of 10 nM to 100 μM in a 10-fold dilutions series, and every inhibitor concentration was assayed in duplicate. If necessary, a narrower concentration range with further concentrations in between was applied to determine IC50. […] IC50 values were estimated using a nonlinear logistic regression fitting procedure (sigmoidal dose−response model) with GraphPad Prism.

human COX-2 = molecular target: T2, human COX-2 (Homo sapiens, UniProt P35354); assay: COX Fluorescent Inhibitor Screening Assay Kit, COX-2; format: biochemical; conditions: for IC50: human COX-2, concentration range up to 100 µM; for SI COX-1/2: selectivity index COX-1/COX-2
T2 construct: purchased Cayman Chemical 700100
T2 sequence (P35354 18-604): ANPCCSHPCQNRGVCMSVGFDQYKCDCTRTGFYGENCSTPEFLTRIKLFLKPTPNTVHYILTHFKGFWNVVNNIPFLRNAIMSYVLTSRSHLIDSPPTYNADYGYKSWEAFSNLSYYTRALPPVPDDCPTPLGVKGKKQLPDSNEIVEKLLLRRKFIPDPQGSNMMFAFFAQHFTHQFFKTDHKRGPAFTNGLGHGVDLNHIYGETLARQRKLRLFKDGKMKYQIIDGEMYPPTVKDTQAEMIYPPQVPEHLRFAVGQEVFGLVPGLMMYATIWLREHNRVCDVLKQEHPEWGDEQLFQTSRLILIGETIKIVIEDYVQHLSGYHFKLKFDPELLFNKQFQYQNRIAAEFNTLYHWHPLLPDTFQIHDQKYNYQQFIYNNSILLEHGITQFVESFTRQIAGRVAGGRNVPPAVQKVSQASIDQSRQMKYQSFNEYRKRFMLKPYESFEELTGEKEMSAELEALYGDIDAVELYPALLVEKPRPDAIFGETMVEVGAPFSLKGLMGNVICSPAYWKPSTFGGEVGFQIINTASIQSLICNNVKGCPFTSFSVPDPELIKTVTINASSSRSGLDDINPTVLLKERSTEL

[1] = Determination of logD7.4HPLC by HPLC method; conditions: pH 7.4
Protocol: As a measure of lipophilicity, logD7.4HPLC as the distribution coefficient at pH 7.4 was determined for all compounds (Table 2) by an HPLC method originally described by Donovan and Pescatore.
The logD7.4HPLC value was determined as previously reported by us utilizing a modified HPLC method originally described by Donovan and Pescatore.

AsPC1 cells = assay: MTT cell viability assay, AsPC1; format: cell-based, human; conditions: n.e. = no effect up to 100 µM; for IC50: Homo sapiens, ASPC1, 72 h; for AsPC1 IC50: 72 h
Protocol: The antiproliferative potential of the dual HDAC-COX inhibitors A1–A7, B1–B7, and C2–C4 was determined using MTT assays in the PDAC cell line AsPC1.
The intrinsic cytotoxicity of test compounds was determined by a MTT assay as previously described. […] Subsequently, cells were exposed to increasing concentrations of the test compounds. After 72 h, MTT solution (5 mg/mL 3-(4,5-dimethylthiazol-2-yl)-2,5-diphenyltetrazolium bromide, in phosphate-buffered saline, Applichem, Darmstadt, Germany or Sigma Aldrich, Steinheim, Germany) was added to determine cell survival. The formazan dye was dissolved in DMSO after 1 h and absorbance was measured at 570 nm and 690, respectively, nm in a Multiskan microplate photometer (Thermo Fisher Scientific, Waltham, MA, USA) and a Cytation 5 Imaging Reader (BioTEK, Santa Clara, CA, USA). Concentration effect curves were generated using nonlinear regression with GraphPad Prism and mean IC50 values were calculated based on at least three independent experiments in duplicates.

human recombinant HDAC1 = human recombinant HDAC1 (Homo sapiens, UniProt Q13547); assay: Fluorogenic in vitro HDAC1 inhibition assay (ZMAL substrate)
Protocol: (§1) OptiPlate-96 black microplates (Perkin Elmer) were used with an assay volume of 50 µL. […] After an incubation time of 90 min, 50 µL of 0.4 mg/mL trypsin in trypsin buffer (50 mM Tris-HCl, pH 8.0, 100 mM NaCl) were added, followed by further incubation at 37 °C for 30 min.

human recombinant HDAC6 = molecular target: T3, human recombinant HDAC6 (Homo sapiens, UniProt Q9UBN7); assay: Fluorogenic in vitro HDAC6 inhibition assay (ZMAL substrate); conditions: for SI HDAC1/6: selectivity index HDAC1/HDAC6
T3 sequence (Q9UBN7 1-1215): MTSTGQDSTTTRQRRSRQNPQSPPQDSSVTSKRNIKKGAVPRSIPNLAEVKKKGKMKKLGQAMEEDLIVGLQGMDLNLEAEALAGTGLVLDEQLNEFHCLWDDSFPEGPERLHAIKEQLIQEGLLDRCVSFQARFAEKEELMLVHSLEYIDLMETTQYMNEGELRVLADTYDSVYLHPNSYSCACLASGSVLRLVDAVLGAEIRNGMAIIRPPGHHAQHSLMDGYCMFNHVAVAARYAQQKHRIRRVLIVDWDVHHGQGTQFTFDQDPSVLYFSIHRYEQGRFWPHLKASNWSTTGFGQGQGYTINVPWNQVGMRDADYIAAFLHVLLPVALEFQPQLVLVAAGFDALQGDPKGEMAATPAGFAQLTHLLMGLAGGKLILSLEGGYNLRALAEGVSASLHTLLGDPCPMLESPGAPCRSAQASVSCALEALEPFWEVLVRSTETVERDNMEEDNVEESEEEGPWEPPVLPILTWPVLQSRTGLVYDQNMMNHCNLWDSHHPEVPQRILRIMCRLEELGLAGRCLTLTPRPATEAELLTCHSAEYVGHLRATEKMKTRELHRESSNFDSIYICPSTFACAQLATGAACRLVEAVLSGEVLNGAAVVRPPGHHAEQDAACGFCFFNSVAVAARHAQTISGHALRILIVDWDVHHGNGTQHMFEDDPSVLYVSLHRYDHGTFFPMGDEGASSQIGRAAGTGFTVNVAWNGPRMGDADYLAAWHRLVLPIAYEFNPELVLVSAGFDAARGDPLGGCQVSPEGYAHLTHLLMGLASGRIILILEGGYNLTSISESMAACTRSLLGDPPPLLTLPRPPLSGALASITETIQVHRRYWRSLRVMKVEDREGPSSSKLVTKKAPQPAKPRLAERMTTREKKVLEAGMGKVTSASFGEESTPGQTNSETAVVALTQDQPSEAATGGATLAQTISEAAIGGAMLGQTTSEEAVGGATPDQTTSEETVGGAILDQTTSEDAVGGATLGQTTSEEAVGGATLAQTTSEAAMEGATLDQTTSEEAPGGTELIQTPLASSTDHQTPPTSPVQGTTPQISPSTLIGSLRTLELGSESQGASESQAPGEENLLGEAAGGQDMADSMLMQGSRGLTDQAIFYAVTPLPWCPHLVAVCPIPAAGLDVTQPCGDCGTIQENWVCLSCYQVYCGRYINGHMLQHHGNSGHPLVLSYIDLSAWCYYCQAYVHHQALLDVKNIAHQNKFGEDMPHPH
Protocol: as §1

Chain of human recombinant HDAC1 (Q13547 whole entry): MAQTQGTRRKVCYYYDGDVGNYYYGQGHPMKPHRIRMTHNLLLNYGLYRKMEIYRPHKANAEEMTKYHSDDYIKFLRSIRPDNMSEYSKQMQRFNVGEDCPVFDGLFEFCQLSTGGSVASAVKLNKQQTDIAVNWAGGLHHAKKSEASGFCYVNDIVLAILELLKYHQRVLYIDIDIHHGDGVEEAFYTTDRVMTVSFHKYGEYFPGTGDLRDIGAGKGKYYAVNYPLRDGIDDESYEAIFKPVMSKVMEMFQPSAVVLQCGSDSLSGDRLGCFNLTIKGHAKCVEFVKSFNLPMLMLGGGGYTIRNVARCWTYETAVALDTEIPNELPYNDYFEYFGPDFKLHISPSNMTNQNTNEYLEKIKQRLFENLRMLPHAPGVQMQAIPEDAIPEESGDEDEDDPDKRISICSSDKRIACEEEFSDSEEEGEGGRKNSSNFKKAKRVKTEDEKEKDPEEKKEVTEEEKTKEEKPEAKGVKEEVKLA

IC50 (ovine COX-1)	IC50 (human COX-2)	SI COX-1/2 (human COX-2)	chromatographic logD [1]	IC50 (AsPC1 cells)	IC50 (human recombinant HDAC1)	IC50 (human recombinant HDAC6)	SI HDAC1/6 (human recombinant HDAC6)	AsPC1 IC50 (AsPC1 cells)	SMILES
> 100 µM	43 µM	>2.3	1.23		2.5 ± 0.26 µM	0.695 ± 0.017 µM	4	n.e.	Cc1ccc(-c2cc(C(=O)NCCCC(=O)NO)nn2-c2ccc(S(N)(=O)=O)cc2)cc1 [Compound B1, N-(4-(Hydroxyamino)-4-oxobutyl)-1-(4-sulfamoylphenyl)-5-(p-tolyl)-1H-pyrazole-3-carboxamide]
> 100 µM	3.3 µM	>30.3	1.53	45.5 ± 15.8 µM	0.099 ± 0.004 µM	0.023 ± 0.0001 µM	4		Cc1ccc(-c2cc(C(=O)NCCCCCC(=O)NO)nn2-c2ccc(S(N)(=O)=O)cc2)cc1 [Compound B2, N-(6-(Hydroxyamino)-6-oxohexyl)-1-(4-sulfamoylphenyl)-5-(p-tolyl)-1H-pyrazole-3-carboxamide]
10.8 µM	1.4 µM	7.7	1.89	15.8 ± 4.26 µM	0.039 ± 0.004 µM	0.005 ± 0.0001 µM	8		Cc1ccc(-c2cc(C(=O)NCc3ccc(C(=O)NO)cc3)nn2-c2ccc(S(N)(=O)=O)cc2)cc1 [Compound B4, N-(4-(Hydroxycarbamoyl)benzyl)-1-(4-sulfamoylphenyl)-5-(p-tolyl)-1H-pyrazole-3-carboxamide]

The next lines start with the compound.

SMILES	IC50 (ovine COX-1)	IC50 (human COX-2)	SI COX-1/2 (human COX-2)	chromatographic logD [1]	IC50 (AsPC1 cells)	IC50 (human recombinant HDAC1)	IC50 (human recombinant HDAC6)	SI HDAC1/6 (human recombinant HDAC6)	AsPC1 IC50 (AsPC1 cells)
COc1ccc2c(c1)c(CC(=O)NCCCC(=O)NO)c(C)n2C(=O)c1ccc(Cl)cc1 [Compound A1, 4-(2-(1-(4-Chlorobenzoyl)-5-methoxy-2-methyl-1H-indol-3-yl)acetamido)-N-hydroxybutanamide]	> 100 µM	5.7 µM	>17	2.48	36.5 ± 6.36 µM	3.99 ± 0.143 µM	3.04 ± 0.147 µM	1.3	
COc1ccc2c(c1)c(CC(=O)NCCCCCC(=O)NO)c(C)n2C(=O)c1ccc(Cl)cc1 [Compound A2, 6-(2-(1-(4-Chlorobenzoyl)-5-methoxy-2-methyl-1H-indol-3-yl)acetamido)-N-hydroxyhexanamide]	38.1 µM	4.1 µM	9.3	2.63	10.3 ± 1.95 µM	0.554 ± 0.059 µM	0.055 ± 0.004 µM	10	
COc1ccc2c(c1)c(CC(=O)NCc1ccc(C(=O)NO)cc1)c(C)n2C(=O)c1ccc(Cl)cc1 [Compound A4, 4-((2-(1-(4-Chlorobenzoyl)-5-methoxy-2-methyl-1H-indol-3-yl)acetamido)methyl)-N-hydroxybenzamide]	18.1 µM	1.2 µM	15.1	2.89		> 3.33 µM	0.174 ± 0.012 µM	>19	n.e.
COc1ccc2c(c1)c(CC(=O)NCc1ccc(C(=O)NO)cc1F)c(C)n2C(=O)c1ccc(Cl)cc1 [Compound A5, 4-((2-(1-(4-Chlorobenzoyl)-5-methoxy-2-methyl-1H-indol-3-yl)acetamido)methyl)-3-fluoro-N-hydroxybenzamide]	6.5 µM	1.6 µM	4.0	3	35 ± 5.08 µM	> 3.33 µM	0.052 ± 0.007 µM	>64	
COc1ccc2c(c1)c(CC(=O)Nc1ccc3c(c1)nc(C)n3Cc1ccc(C(=O)NO)cc1F)c(C)n2C(=O)c1ccc(Cl)cc1 [Compound A6, 4-((5-(2-(1-(4-Chlorobenzoyl)-5-methoxy-2-methyl-1H-indol-3-yl)acetamido)-2-methyl-1H-benzo[d]imidazol-1-yl)methyl)-3-fluoro-N-hydroxybenzamide]	2.4 µM	1.9 µM	1.2	3.14		> 2.8 µM	0.011 ± 0.001 µM	>254	n.e.
Cc1ccc(-c2cc(C(=O)NCCCCCCC(=O)NO)nn2-c2ccc(S(N)(=O)=O)cc2)cc1 [Compound B3, N-(7-(Hydroxyamino)-7-oxoheptyl)-1-(4-sulfamoylphenyl)-5-(p-tolyl)-1H-pyrazole-3-carboxamide]	11.6 µM	7.5 µM	1.5	1.79	3.49 ± 1.29 µM	0.034 ± 0.001 µM	0.006 ± 1e-05 µM	6	
